Test results taken from patent US7345070B2, “Peroxisome proliferator activated receptor agonists” (Eli Lilly and Company, priority 2000, dated 2008).

Tested on: db/db mice
Test: Evaluation of glucose levels in db/db mice
Assay type: in vivo
Conditions: Mus musculus, 168 h, 30 mg/kg oral gavage daily for 7 days, 100% = glucose not different from lean values, read-out: Glucose Normalisation
Method: Five week old male diabetic (db/db) mice [C57BlKs/j-m+/+ Lepr(db), Jackson Laboratory, Bar Harbor, Me.] or lean littermates (db+) were housed 6 per cage (10″×20″×8″ with aspen chip bedding) with food (Purina 5015) and water available at all times. After an acclimation period of 2 weeks, animals were individually identified by ear notches, weighed, and bled via the tail vein for determination of initial glucose levels. Blood was collected (100 μl) from unfasted animals by wrapping each mouse in a towel, cutting the tip of the tail with a scalpel, and milking blood from the tail into a heparinized capillary tube (Fisher) balanced on the edge of the bench. Sample was discharged into a heparinized microtainer with gel separator (VWR) and retained on ice. Plasma was obtained after centrifugation at 4° C. and glucose measured immediately. Remaining plasma was frozen until the completion of the experiment, when glucose and triglycerides were assayed in all samples. Animals were grouped based on initial glucose levels and body weights. Beginning the following morning, mice were dosed daily by oral gavage for 7 days using a 20 gauge, 1½″ curved disposable feeding needle. Treatments were test compounds (30 mg/kg), a positive control agent (30 mg/kg) or vehicle [1% carboxymethylcellulose (w/v)/0.25% Tween80 (w/v); 0.3 ml/mouse]. On day 7, mice were weighed and bled (tail vein) 3 hours after dosing. Twenty-four hours after the 7th dose (i.e., day 8), animals were bled again (tail vein). Samples obtained from conscious animals on days 0, 7 and 8 were assayed for glucose. After the 24 hour bleed, animals were weighed and dosed for the final time. Three hours after dosing on day 8, animals were anesthetized by inhalation of isoflurane and blood obtained via cardiac puncture (0.5-0.7 ml). Whole blood was transferred to serum separator tubes, chilled on ice and permitted to clot. Serum was obtained after centrifugation at 4° C. and frozen until analysis for compound levels. After sacrifice by cervical dislocation, the liver, heart and epididymal fat pads were excised and weighed.
The animals dosed with vehicle had average triglycerides values of 170-230 mg/dl, which were reduced by the positive PPARγ control (70-120 mg/dl with a mean reduction of 50%). Male db/db mice were hyperglycemic (average glucose of 680-730 mg/dl on the 7th day of treatment), while lean animals had average glucose levels between 190-230 mg/dl.
Glucose was measured […] using commercially purchased reagents (Sigma #315-500). According to the manufacturers, the procedures were modified from published work (McGowan, M. W., Artiss, J. D., Strandbergh, D. R. & Zak, B. Clin Chem, 20:470-5 (1974) and Keston, A. Specific colorimetric enzymatic analytical reagents for glucose. Abstract of papers 129th Meeting ACS, 31C (1956).); and depend on the release of a mole of hydrogen peroxide for each mole of analyte, coupled with a color reaction first described by Trinder (Trinder, P. Determination of glucose in blood using glucose oxidase with an alternative oxygen acceptor. Ann Clin Biochem, 6:24 (1969)). The absorbance of the dye produced is linearly related to the analyte in the sample. The assays were further modified in our laboratory for use in a 96 well format. Standards (Sigma #339-11, Sigma #16-11, and Sigma #CC0534 for glucose, triglycerides and total cholesterol, respectively), quality control plasma (Sigma # A2034), and samples (2 or 5 μl/well) were measured in duplicate using 200 μl of reagent. An additional aliquot of sample, pipetted to a third well and diluted in 200 μl water, provided a blank for each specimen. Plates were incubated at room temperature (18, 15, and 10 minutes for glucose, triglycerides and total cholesterol, respectively) on a plate shaker (DPC Micormix 5) and absorbance read at 500 nm (glucose and total cholesterol) or 540 nm (triglycerides) on a plate reader (Wallac Victor 1420). […]

| SMILES | inhibition in vivo at 30 mg/kg |
| --- | --- |
| Cc1oc(-c2cccc(Br)c2)nc1CCOc1ccc(CC(C)(Oc2ccccc2)C(=O)O)cc1 (stereo not shown) [Example 8, 3-(4-{2-[2-(3-Bromophenyl)-5-methyloxazol-4-yl]ethoxy}phenyl)-2-methyl-2-phenoxypropionic acid] | 97% |
| Cc1oc(C2(C)CCCCC2)nc1CCOc1ccc(CC(C)(Oc2ccccc2)C(=O)O)cc1 (stereo not shown) [Example 9, 2-Methyl-3-(4-{2-[5-methyl-2-(1-methylcyclohexyl)oxazol-4-yl]ethoxy}phenyl)-2-phenoxypropionic acid] | 95% |
| Cc1oc(-c2cccs2)nc1CCOc1ccc(CC(C)(Oc2ccc(C(C)(C)C)cc2)C(=O)O)cc1 (stereo not shown) [Example 17, 2-Methyl-3-{4-[2-(5-methyl-2-thiophen-2-yl-oxazol-4-yl)-ethoxy]-phenyl}-2-(4-tert-butylphenoxy)-propionic acid] | 112% |
| Cc1oc(C2CCCCC2)nc1CCOc1ccc(CC(C)(Oc2ccc(C(C)(C)C)cc2)C(=O)O)cc1 (stereo not shown) [Example 18, 2-Methyl-3-(4-{2-[5-methyl-2-cyclohexylyl-oxazol-4-yl]-ethoxy}-phenyl)-2-(4-tert-butylphenoxy)-propionic acid] | 110% |
| COc1ccc(OC(C)(Cc2ccc(OCCc3nc(-c4cccs4)oc3C)cc2)C(=O)O)cc1 (stereo not shown) [Example 19, 2-Methyl-3-{4-[2-(5-methyl-2-thiophen-2-yl-oxazol-4-yl)-ethoxy]-phenyl}-2-(4-methoxyphenoxy)-propionic acid] | 95% |
| Cc1oc(-c2cccs2)nc1CCOc1ccc(CC(C)(Oc2cccc(F)c2)C(=O)O)cc1 (stereo not shown) [Example 22, 2-(3-Fluoro-phenoxy)-2-methyl-3-{4-[2-(5-methyl-2-thiophen-2-yl-oxazol-4-yl)-ethoxy]-phenyl}-propionic acid] | 85% |
| Cc1oc(C2CCCCC2)nc1CCOc1ccc(CC(C)(Oc2cccc(F)c2)C(=O)O)cc1 (stereo not shown) [Example 23, 2-(3-Fluoro-phenoxy)-2-methyl-3-{4-[2-(5-methyl-2-cyclohexyl-oxazol-4-yl)-ethoxy]-phenyl}-propionic acid] | 97% |
| Cc1oc(-c2cccs2)nc1CCOc1ccc(CC(C)(Oc2cccc(C(C)(C)C)c2)C(=O)O)cc1 (stereo not shown) [Example 25, 2-(3-tert-Butyl-phenoxy)-2-methyl-3-{4-[2-(5-methyl-2-thiophen-2-yl-oxazol-4-yl)-ethoxy]-phenyl}-propionic acid] | 73% |
| Cc1oc(-c2cccs2)nc1CCOc1ccc(CC(C)(Oc2ccccc2F)C(=O)O)cc1 (stereo not shown) [Example 27, 2-(2-Fluoro-phenoxy)-2-methyl-3-{4-[2-(5-methyl-2-thiophen-2-yl-oxazol-4-yl)-ethoxy]-phenyl}-propionic acid] | 86% |
| Cc1oc(-c2ccccc2)nc1CCOc1ccc(CC(C)(Oc2ccc(Cl)cc2)C(=O)O)cc1 (stereo not shown) [Example 29, 2-(4-Chloro-phenoxy)-2-methyl-3-{4-[2-(5-methyl-2-phenyl-oxazol-4-yl)-ethoxy]-phenyl}-propionic acid] | 86% |
| Cc1oc(C2CCCCC2)nc1CCOc1ccc(CC(C)(Oc2ccc(C3CCCCC3)cc2)C(=O)O)cc1 (stereo not shown) [Example 34, 3-{4-[2-(2-Cyclohexyl-5-methyl-oxazol-4-yl)-ethoxy]-phenyl}-2-(4-cyclohexyl-phenoxy)-2-methyl-propionic acid] | 80% |
| Cc1ccc(OC(C)(Cc2ccc(OCCc3nc(C4CCCCC4)oc3C)cc2)C(=O)O)cc1C (stereo not shown) [Example 35, 3-{4-[2-(2-Cyclohexyl-5-methyl-oxazol-4-yl)-ethoxy]-phenyl}-2-(3,4-dimethyl-phenoxy)-2-methyl-propionic acid] | 84% |
| Cc1ccc(OC(C)(Cc2ccc(OCCc3nc(-c4cccs4)oc3C)cc2)C(=O)O)cc1C (stereo not shown) [Example 36, 2-(3,4-Dimethyl-phenoxy)-2-methyl-3-{4-[2-(5-methyl-2-thiophen-2-yl-oxazol-4-yl)-ethoxy]-phenyl}-propionic acid] | 92% |
| Cc1ccc(OC(C)(Cc2ccc(OCCc3nc(-c4cccs4)oc3C)cc2)C(=O)O)cc1 (stereo not shown) [Example 40, 2-Methyl-3-{4-[2-(5-methyl-2-thiophen-2-yl-oxazol-4-yl)-ethoxy]-phenyl}-2-p-tolyloxy-propionic acid] | 103% |
| Cc1ccc(OC(C)(Cc2ccc(OCCc3nc(C4CCCCC4)oc3C)cc2)C(=O)O)cc1 (stereo not shown) [Example 41, 3-{4-[2-(2-Cyclohexyl-5-methyl-oxazol-4-yl)-ethoxy]-phenyl}-2-methyl-2-p-tolyloxy-propionic acid] | 101% |
| Cc1oc(C2CCCCC2)nc1CCOc1ccc(CC(C)(Oc2ccc(OC(F)(F)F)cc2)C(=O)O)cc1 (stereo not shown) [Example 44, 3-{4-[2-(2-Cyclohexyl-5-methyl-oxazol-4-yl)-ethoxy]-phenyl}-2-methyl-2-(4-trifluoromethoxy-phenoxy)-propionic acid] | 83% |
| Cc1oc(-c2cccs2)nc1CCOc1ccc(CC(C)(Oc2ccc(C(F)(F)F)cc2)C(=O)O)cc1 (stereo not shown) [Example 51, 2-Methyl-3-{4-[2-(5-methyl-2-thiophen-2-yl-oxazol-4-yl)-ethoxy]-phenyl}-2-(4-trifluoromethyl-phenoxy)-propionic acid] | 88% |
| Cc1oc(C2CCCCC2)nc1CCOc1ccc(CC(C)(Oc2ccc(C(F)(F)F)cc2)C(=O)O)cc1 (stereo not shown) [Example 52, 3-{4-[2-(2-Cyclohexyl-5-methyl-oxazol-4-yl)-ethoxy]-phenyl}-2-methyl-2-(4-trifluoromethyl-phenoxy)-propionic acid] | 98% |
| Cc1oc(C2CCCCC2)nc1CCOc1ccc(CC(C)(Oc2ccc(F)c(F)c2)C(=O)O)cc1 (stereo not shown) [Example 58, 3-{4-[2-(2-Cyclohexyl-5-methyl-oxazol-4-yl)-ethoxy]-phenyl}-2-(3,4-difluoro-phenoxy)-2-methyl-propionic acid] | 81% |
| Cc1cccc(OC(C)(Cc2ccc(OCCc3nc(-c4cccs4)oc3C)cc2)C(=O)O)c1 (stereo not shown) [Example 61, 2-Methyl-3-{4-[2-(5-methyl-2-thiophen-2-yl-oxazol-4-yl)-ethoxy]-phenyl}-2-m-tolyloxy-propionic acid] | 79% |
| Cc1cccc(OC(C)(Cc2ccc(OCCc3nc(C4CCCCC4)oc3C)cc2)C(=O)O)c1 (stereo not shown) [Example 62, 3-{4-[2-(2-Cyclohexyl-5-methyl-oxazol-4-yl)-ethoxy]-phenyl}-2-methyl-2-m-tolyloxy-propionic acid] | 79% |
| Cc1oc(-c2cccs2)nc1CCOc1ccc(CC(C)(Oc2ccc(F)cc2)C(=O)O)cc1 (stereo not shown) [Example 64, 2-(4-Fluoro-phenoxy)-2-methyl-3-{4-[2-(5-methyl-2-thiophen-2-yl-oxazol-4-yl)-ethoxy]-phenyl}-propionic acid] | 97% |
| Cc1oc(C2CCCCC2)nc1CCOc1ccc(CC(C)(Oc2ccc(F)cc2)C(=O)O)cc1 (stereo not shown) [Example 65, 3-{4-[2-(2-Cyclohexyl-5-methyl-oxazol-4-yl)-ethoxy]-phenyl}-2-(4-fluoro-phenoxy)-2-methyl-propionic acid] | 99% |
| Cc1oc(C2(C)CCCCC2)nc1CCOc1ccc(C[C@](C)(Oc2ccc(F)cc2)C(=O)O)cc1 [Example 67, (S)-2-(4-Fluoro-phenoxy)-2-methyl-3-(4-{2-[5-methyl-2-(1-methyl-cyclohexyl)-oxazol-4-yl]-ethoxy}-phenyl)-propionic acid] | 96% |
| Cc1oc(-c2cccs2)nc1CCOc1ccc(CC(C)(Oc2cccc(C(F)(F)F)c2)C(=O)O)cc1 (stereo not shown) [Example 71, 2-Methyl-3-{4-[2-(5-methyl-2-thiophen-2-yl-oxazol-4-yl)-ethoxy]-phenyl}-2-(3-trifluoromethyl-phenoxy)-propionic acid] | 97% |
